Laboratory results reported in PubChem BioAssay (NCI).
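How tested: cells in 96-well plates exposed to compound for 48 hours at five concentrations. TGI is the concentration that stops growth completely.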

Key:
Assay in all cases: growth of human tumour cells (NCI), 48 h
786-0 renal = tested on: 786-0 renal
A549 NSCLC = tested on: A549 NSCLC
ACHN renal = tested on: ACHN renal
CAKI-1 renal = tested on: CAKI-1 renal
CCRF-CEM leukemia = tested on: CCRF-CEM leukemia
COLO 205 colon = tested on: COLO 205 colon
DU-145 prostate = tested on: DU-145 prostate
EKVX NSCLC = tested on: EKVX NSCLC
HCC-2998 colon = tested on: HCC-2998 colon
HCT-116 colon = tested on: HCT-116 colon
HCT-15 colon = tested on: HCT-15 colon
HL-60(TB) leukemia = tested on: HL-60(TB) leukemia
HOP-62 NSCLC = tested on: HOP-62 NSCLC
HOP-92 NSCLC = tested on: HOP-92 NSCLC
HS 578T breast = tested on: HS 578T breast
HT29 colon = tested on: HT29 colon
IGROV1 ovarian = tested on: IGROV1 ovarian
K-562 leukemia = tested on: K-562 leukemia
KM12 colon = tested on: KM12 colon
LOX IMVI melanoma = tested on: LOX IMVI melanoma
M14 melanoma = tested on: M14 melanoma
MALME-3M melanoma = tested on: MALME-3M melanoma
MCF7 breast = tested on: MCF7 breast
MDA-MB-231 breast = tested on: MDA-MB-231 breast
MDA-MB-435 = tested on: MDA-MB-435
MDA-N = tested on: MDA-N
MOLT-4 leukemia = tested on: MOLT-4 leukemia
NCI-H226 lung = tested on: NCI-H226 lung
NCI-H23 lung = tested on: NCI-H23 lung
NCI-H460 lung = tested on: NCI-H460 lung
NCI-H522 lung = tested on: NCI-H522 lung
NCI/ADR-RES ovarian = tested on: NCI/ADR-RES ovarian
OVCAR-3 ovarian = tested on: OVCAR-3 ovarian
OVCAR-4 ovarian = tested on: OVCAR-4 ovarian
OVCAR-5 ovarian = tested on: OVCAR-5 ovarian
OVCAR-8 ovarian = tested on: OVCAR-8 ovarian
PC-3 prostate = tested on: PC-3 prostate
RPMI-8226 leukemia = tested on: RPMI-8226 leukemia
SF-268 CNS = tested on: SF-268 CNS
SF-295 CNS = tested on: SF-295 CNS
SF-539 CNS = tested on: SF-539 CNS
SK-MEL-2 melanoma = tested on: SK-MEL-2 melanoma
SK-MEL-28 melanoma = tested on: SK-MEL-28 melanoma
SK-MEL-5 melanoma = tested on: SK-MEL-5 melanoma
SN12C renal = tested on: SN12C renal
SNB-19 CNS = tested on: SNB-19 CNS
SNB-75 CNS = tested on: SNB-75 CNS
SR leukemia = tested on: SR leukemia
SW-620 colon = tested on: SW-620 colon
T-47D breast = tested on: T-47D breast
TK-10 renal = tested on: TK-10 renal
U251 CNS = tested on: U251 CNS
UACC-257 melanoma = tested on: UACC-257 melanoma
UO-31 renal = tested on: UO-31 renal
RXF 393 renal = tested on: RXF 393 renal
UACC-62 melanoma = tested on: UACC-62 melanoma

## Nc1ccc(C(=O)O)cc1
786-0 renal
  TGI: > 100 µM
A549 NSCLC
  TGI: > 100 µM
ACHN renal
  TGI: > 100 µM
CAKI-1 renal
  TGI: > 100 µM
CCRF-CEM leukemia
  TGI: > 100 µM
COLO 205 colon
  TGI: > 100 µM
DU-145 prostate
  TGI: > 100 µM
EKVX NSCLC
  TGI: > 100 µM
HCC-2998 colon
  TGI: > 100 µM
HCT-116 colon
  TGI: > 100 µM
HCT-15 colon
  TGI: 52 µM
HL-60(TB) leukemia
  TGI: > 100 µM
HOP-62 NSCLC
  TGI: > 100 µM
HOP-92 NSCLC
  TGI: > 100 µM
HS 578T breast
  TGI: > 100 µM
HT29 colon
  TGI: > 100 µM
IGROV1 ovarian
  TGI: > 100 µM
K-562 leukemia
  TGI: > 100 µM
KM12 colon
  TGI: > 100 µM
LOX IMVI melanoma
  TGI: > 100 µM
M14 melanoma
  TGI: > 100 µM
MALME-3M melanoma
  TGI: > 100 µM
MCF7 breast
  TGI: > 100 µM
MDA-MB-231 breast
  TGI: > 100 µM
MDA-MB-435
  TGI: > 100 µM
MDA-N
  TGI: > 100 µM
MOLT-4 leukemia
  TGI: > 100 µM
NCI-H226 lung
  TGI: > 100 µM
NCI-H23 lung
  TGI: > 100 µM
NCI-H460 lung
  TGI: > 100 µM
NCI-H522 lung
  TGI: > 100 µM
NCI/ADR-RES ovarian
  TGI: > 100 µM
OVCAR-3 ovarian
  TGI: > 100 µM
OVCAR-4 ovarian
  TGI: > 100 µM
OVCAR-5 ovarian
  TGI: > 100 µM
OVCAR-8 ovarian
  TGI: > 100 µM
PC-3 prostate
  TGI: > 100 µM
RPMI-8226 leukemia
  TGI: > 100 µM
SF-268 CNS
  TGI: > 100 µM
SF-295 CNS
  TGI: > 100 µM
SF-539 CNS
  TGI: > 100 µM
SK-MEL-2 melanoma
  TGI: > 100 µM
SK-MEL-28 melanoma
  TGI: > 100 µM
SK-MEL-5 melanoma
  TGI: > 100 µM
SN12C renal
  TGI: > 100 µM
SNB-19 CNS
  TGI: > 100 µM
SNB-75 CNS
  TGI: > 100 µM
SR leukemia
  TGI: > 100 µM
SW-620 colon
  TGI: > 100 µM
T-47D breast
  TGI: > 100 µM
TK-10 renal
  TGI: > 100 µM
U251 CNS
  TGI: > 100 µM
UACC-257 melanoma
  TGI: > 100 µM
UO-31 renal
  TGI: > 100 µM

## Cc1ccc2c(=O)cc(-c3cccc(F)c3)[nH]c2n1
786-0 renal
  TGI: > 100 µM
A549 NSCLC
  TGI: > 100 µM
ACHN renal
  TGI: > 100 µM
CAKI-1 renal
  TGI: > 100 µM
CCRF-CEM leukemia
  TGI: > 100 µM
COLO 205 colon
  TGI: 0.0567 µM
DU-145 prostate
  TGI: 1.23 µM
EKVX NSCLC
  TGI: > 100 µM
HCC-2998 colon
  TGI: 0.401 µM
HL-60(TB) leukemia
  TGI: 0.0621 µM
HOP-62 NSCLC
  TGI: > 100 µM
HOP-92 NSCLC
  TGI: > 100 µM
HS 578T breast
  TGI: 0.0591 µM
HT29 colon
  TGI: 1.11 µM
IGROV1 ovarian
  TGI: > 100 µM
K-562 leukemia
  TGI: > 100 µM
KM12 colon
  TGI: 1.29 µM
LOX IMVI melanoma
  TGI: > 100 µM
M14 melanoma
  TGI: > 100 µM
MALME-3M melanoma
  TGI: > 100 µM
MDA-MB-231 breast
  TGI: 1.11 µM
MDA-MB-435
  TGI: 0.0224 µM
MDA-N
  TGI: 0.0362 µM
MOLT-4 leukemia
  TGI: > 100 µM
NCI-H226 lung
  TGI: 0.475 µM
NCI-H23 lung
  TGI: 0.739 µM
NCI-H522 lung
  TGI: 0.0504 µM
OVCAR-3 ovarian
  TGI: 0.0415 µM
OVCAR-4 ovarian
  TGI: > 100 µM
OVCAR-5 ovarian
  TGI: > 100 µM
OVCAR-8 ovarian
  TGI: 1.87 µM
RPMI-8226 leukemia
  TGI: > 19.8 µM
RXF 393 renal
  TGI: > 100 µM
SF-268 CNS
  TGI: > 100 µM
SF-539 CNS
  TGI: 0.78 µM
SK-MEL-28 melanoma
  TGI: > 100 µM
SK-MEL-5 melanoma
  TGI: 2.16 µM
SN12C renal
  TGI: > 100 µM
SW-620 colon
  TGI: > 100 µM
TK-10 renal
  TGI: > 100 µM
U251 CNS
  TGI: > 74.7 µM
UACC-257 melanoma
  TGI: > 100 µM
UACC-62 melanoma
  TGI: > 100 µM
